These results are taken from ChEMBL document CHEMBL1201862, “PubChem BioAssay data set” (2004).

Holding throughout (format): functional
In test [1] the target is T1, Sentrin-specific protease 6 (Homo sapiens, UniProt Q9GZR1).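 Also: Luminescence-based dose-response confirmatory assay of SENP6 inhibition, following up an ultra-high-throughput screen.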
T1 sequence (Q9GZR1 whole entry): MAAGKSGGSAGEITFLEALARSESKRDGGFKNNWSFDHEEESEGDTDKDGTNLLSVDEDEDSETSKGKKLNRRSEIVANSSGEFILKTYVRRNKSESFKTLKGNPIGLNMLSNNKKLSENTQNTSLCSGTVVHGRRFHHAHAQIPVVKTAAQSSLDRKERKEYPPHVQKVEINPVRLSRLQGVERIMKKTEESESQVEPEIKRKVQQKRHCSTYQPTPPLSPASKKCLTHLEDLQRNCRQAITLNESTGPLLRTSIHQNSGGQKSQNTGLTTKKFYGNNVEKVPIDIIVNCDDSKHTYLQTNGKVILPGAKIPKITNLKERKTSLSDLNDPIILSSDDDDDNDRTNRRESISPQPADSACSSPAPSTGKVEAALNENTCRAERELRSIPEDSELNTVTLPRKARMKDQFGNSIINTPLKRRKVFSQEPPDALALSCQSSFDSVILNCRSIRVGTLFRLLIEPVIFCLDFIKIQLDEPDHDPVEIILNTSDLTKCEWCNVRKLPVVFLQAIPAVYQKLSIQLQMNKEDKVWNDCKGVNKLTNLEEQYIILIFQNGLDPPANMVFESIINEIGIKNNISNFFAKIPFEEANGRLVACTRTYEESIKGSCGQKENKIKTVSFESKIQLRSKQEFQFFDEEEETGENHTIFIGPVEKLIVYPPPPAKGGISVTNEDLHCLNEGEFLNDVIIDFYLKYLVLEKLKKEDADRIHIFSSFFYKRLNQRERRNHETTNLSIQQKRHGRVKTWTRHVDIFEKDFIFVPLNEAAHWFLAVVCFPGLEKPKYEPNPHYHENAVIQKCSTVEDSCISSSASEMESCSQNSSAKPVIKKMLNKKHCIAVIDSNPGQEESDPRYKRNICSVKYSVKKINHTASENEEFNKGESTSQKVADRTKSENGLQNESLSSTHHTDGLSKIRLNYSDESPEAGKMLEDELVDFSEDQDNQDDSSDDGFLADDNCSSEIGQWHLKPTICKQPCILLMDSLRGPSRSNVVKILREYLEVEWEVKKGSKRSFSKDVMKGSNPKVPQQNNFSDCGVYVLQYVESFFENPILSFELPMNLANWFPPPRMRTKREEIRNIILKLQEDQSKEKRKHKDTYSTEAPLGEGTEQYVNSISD

Test [2] deals with T2, Caspase-3 (Homo sapiens, UniProt P42574).
T2 sequence (P42574 whole entry): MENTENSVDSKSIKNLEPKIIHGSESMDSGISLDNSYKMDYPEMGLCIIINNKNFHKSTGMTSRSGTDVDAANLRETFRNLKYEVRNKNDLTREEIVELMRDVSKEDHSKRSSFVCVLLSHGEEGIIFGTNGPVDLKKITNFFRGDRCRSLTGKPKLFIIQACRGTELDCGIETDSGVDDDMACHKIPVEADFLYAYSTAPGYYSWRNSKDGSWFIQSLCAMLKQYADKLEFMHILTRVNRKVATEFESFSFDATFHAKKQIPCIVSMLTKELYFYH

Test [3] deals with T3, Sentrin-specific protease 8 (Homo sapiens, UniProt Q96LD8).
T3 sequence (Q96LD8 whole entry): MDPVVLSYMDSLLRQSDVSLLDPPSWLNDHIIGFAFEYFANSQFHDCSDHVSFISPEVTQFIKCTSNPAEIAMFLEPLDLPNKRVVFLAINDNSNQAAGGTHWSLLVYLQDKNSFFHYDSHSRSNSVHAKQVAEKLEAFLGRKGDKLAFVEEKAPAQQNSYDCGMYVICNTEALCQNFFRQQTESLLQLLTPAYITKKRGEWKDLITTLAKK

The target of test [4] is T4, Sentrin-specific protease 7 (Homo sapiens, UniProt Q9BQF6).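 Also: Luminescence-based dose-response confirmation of ultra-high-throughput screening hits, measuring inhibition of SENP7.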
T4 sequence (Q9BQF6 whole entry): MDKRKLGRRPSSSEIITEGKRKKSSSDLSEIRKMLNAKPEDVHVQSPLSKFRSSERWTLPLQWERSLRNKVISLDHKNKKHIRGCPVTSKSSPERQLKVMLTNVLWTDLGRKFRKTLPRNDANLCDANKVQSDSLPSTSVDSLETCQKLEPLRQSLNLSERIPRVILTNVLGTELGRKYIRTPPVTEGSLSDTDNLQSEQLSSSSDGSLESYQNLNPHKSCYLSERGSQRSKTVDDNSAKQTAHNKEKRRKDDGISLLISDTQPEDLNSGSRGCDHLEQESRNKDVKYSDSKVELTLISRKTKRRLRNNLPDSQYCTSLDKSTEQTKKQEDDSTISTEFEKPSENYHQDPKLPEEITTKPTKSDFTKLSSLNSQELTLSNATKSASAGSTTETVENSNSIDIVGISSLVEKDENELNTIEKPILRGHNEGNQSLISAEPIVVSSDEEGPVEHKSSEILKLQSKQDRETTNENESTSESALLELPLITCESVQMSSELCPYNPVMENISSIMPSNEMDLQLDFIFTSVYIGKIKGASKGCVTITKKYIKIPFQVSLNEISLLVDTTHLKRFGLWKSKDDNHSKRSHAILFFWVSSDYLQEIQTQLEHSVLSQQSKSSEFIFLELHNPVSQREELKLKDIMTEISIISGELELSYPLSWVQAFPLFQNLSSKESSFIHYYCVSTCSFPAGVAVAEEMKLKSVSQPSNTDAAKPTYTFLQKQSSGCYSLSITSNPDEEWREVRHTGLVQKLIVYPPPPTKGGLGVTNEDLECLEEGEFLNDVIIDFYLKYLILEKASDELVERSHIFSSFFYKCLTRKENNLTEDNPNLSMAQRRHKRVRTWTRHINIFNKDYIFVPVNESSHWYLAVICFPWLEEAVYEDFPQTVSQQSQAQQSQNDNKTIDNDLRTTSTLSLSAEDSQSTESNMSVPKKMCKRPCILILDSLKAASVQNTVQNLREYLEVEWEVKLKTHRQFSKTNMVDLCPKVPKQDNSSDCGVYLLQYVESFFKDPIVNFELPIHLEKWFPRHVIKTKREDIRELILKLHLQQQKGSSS

Test [5] deals with Protein kinase C delta type (Homo sapiens, UniProt Q05655).
The target of test [6] is Non-receptor tyrosine-protein kinase TYK2 (Homo sapiens, UniProt P29597).

Each structure is given as a SMILES string. Active and inactive are the calls of the source. Rule as the data show it, for most assays here: actives have a measured IC50 and inactives only a lower limit.

Sequence of Non-receptor tyrosine-protein kinase TYK2 (P29597 whole entry): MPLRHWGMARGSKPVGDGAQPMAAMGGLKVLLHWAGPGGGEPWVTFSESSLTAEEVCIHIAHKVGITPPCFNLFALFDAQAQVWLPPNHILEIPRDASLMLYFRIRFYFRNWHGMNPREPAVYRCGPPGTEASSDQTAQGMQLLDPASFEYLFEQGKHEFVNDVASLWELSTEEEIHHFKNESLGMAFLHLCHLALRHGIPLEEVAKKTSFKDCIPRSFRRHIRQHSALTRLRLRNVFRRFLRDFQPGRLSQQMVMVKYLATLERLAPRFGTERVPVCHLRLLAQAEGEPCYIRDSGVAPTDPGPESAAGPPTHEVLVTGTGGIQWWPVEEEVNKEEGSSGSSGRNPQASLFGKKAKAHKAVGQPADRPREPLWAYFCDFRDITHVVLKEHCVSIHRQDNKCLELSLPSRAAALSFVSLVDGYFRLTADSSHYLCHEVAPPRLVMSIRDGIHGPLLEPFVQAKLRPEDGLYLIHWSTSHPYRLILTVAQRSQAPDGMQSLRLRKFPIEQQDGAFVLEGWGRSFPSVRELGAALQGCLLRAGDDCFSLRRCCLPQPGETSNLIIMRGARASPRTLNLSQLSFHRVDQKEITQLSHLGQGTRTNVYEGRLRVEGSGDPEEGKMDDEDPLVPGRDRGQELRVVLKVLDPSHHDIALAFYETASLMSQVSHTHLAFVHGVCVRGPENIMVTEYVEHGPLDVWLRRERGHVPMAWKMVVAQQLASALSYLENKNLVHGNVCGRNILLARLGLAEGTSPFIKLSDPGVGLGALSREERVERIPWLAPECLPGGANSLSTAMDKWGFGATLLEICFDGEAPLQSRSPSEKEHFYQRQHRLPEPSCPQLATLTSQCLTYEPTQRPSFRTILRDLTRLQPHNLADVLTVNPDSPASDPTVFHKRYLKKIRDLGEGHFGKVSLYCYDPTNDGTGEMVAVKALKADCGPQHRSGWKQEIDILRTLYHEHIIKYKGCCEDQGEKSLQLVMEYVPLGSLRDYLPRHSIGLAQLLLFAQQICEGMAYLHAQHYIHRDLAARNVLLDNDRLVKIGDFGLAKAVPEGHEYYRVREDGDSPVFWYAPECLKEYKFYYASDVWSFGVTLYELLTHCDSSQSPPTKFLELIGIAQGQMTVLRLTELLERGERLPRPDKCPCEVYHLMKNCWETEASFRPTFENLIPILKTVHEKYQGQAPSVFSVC
Sequence of Protein kinase C delta type (Q05655 whole entry): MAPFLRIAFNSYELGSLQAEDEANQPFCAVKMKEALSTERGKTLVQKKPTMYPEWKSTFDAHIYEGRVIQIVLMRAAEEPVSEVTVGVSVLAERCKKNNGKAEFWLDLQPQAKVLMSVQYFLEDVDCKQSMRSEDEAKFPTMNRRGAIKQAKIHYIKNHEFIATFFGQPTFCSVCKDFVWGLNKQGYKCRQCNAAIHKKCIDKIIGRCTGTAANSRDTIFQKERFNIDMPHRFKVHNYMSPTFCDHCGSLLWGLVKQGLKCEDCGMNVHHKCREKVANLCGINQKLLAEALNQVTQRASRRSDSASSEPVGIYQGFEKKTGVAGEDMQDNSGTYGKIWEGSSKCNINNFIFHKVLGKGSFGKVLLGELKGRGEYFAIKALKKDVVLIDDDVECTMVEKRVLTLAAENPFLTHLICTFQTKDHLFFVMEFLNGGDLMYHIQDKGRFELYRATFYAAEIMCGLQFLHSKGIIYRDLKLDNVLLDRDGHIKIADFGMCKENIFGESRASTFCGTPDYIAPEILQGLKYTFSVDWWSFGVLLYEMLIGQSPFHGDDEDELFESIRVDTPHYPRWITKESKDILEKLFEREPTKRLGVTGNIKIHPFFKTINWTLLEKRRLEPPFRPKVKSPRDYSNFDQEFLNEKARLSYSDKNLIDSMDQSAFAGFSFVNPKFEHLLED

The term IC50 denotes the concentration at which inhibition is half-maximal. Take `O=C(COC(=O)c1ccc([N+](=O)[O-])s1)Nc1cccc(S(=O)(=O)/N=C2/CCCCCN2)c1`: the IC50 was 4.62 µM (active) in test [1], 10 µM (active) in test [2], 4.92 µM (active) in test [3] and 7.08 µM (active) in test [4].
The matching figures for `COc1ccc(C(C[N+](=O)[O-])c2c(C)[nH]n(-c3ccccc3)c2=O)cc1` (stereo not given): 7.1 µM (active), > 100 µM (inactive), 8.32 µM (active) and 7.15 µM (active).
As a reminder, the Ki is a dissociation constant, usually derived from enzyme kinetics or from competition with a known ligand. For the compound `Oc1c2ccccc2c2c3c(cccc13)N=N2` [SP-600125], the Ki in test [5] was > 7.94 µM (inactive); in test [6], 1.26 µM (active).
